Measured values published in paper doi:10.1101/2025.05.29.656899v1 (biorxiv, 2025).

Key:
Assay in all cases: glucosylation kinetics, Michaelis-Menten
Type in all cases: biochemical
UGT72B19 = molecular target: T1, UGT72B19 (Fagopyrum esculentum, UniProt A0A0A1H7P3); conditions: UDP-glucose donor; phosphate buffer pH 8.0; 39 °C
T1 sequence (A0A0A1H7P3 1-474): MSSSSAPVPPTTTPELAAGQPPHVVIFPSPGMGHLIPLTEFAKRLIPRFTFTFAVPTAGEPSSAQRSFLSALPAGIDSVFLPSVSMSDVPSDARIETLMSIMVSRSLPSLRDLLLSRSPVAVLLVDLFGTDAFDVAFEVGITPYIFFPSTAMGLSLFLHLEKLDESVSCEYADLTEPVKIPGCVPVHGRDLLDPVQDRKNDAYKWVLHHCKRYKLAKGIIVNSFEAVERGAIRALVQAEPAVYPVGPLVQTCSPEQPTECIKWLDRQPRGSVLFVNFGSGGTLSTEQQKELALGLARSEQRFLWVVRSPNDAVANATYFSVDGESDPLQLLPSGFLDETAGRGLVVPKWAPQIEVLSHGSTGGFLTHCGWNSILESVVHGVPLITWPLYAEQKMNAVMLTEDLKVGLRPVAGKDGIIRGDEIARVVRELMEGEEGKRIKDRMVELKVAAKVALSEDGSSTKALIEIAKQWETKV

UGT71C1 = molecular target: T2, UGT71C1 (Arabidopsis thaliana, UniProt O82381); conditions: UDP-glucose donor; phosphate buffer pH 8.0; 30 °C
T2 sequence (O82381 1-481): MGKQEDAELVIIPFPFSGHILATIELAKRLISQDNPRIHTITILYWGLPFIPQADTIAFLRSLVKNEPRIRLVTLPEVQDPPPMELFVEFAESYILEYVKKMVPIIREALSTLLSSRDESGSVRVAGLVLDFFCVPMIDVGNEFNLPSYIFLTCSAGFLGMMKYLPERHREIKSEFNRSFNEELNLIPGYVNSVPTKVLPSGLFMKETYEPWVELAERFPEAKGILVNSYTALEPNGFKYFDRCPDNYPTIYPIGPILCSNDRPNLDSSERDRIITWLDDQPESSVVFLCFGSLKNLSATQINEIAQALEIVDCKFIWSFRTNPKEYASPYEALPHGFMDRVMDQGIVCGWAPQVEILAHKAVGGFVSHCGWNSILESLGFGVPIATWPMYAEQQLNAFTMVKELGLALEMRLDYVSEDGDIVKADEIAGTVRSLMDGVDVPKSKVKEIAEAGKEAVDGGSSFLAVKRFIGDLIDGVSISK

UGT72B68 = molecular target: T3, UGT72B68 (Solanum lycopersicum, UniProt D7S016); conditions: UDP-glucose donor; phosphate buffer pH 8.0; 35 °C
T3 sequence (D7S016 1-476): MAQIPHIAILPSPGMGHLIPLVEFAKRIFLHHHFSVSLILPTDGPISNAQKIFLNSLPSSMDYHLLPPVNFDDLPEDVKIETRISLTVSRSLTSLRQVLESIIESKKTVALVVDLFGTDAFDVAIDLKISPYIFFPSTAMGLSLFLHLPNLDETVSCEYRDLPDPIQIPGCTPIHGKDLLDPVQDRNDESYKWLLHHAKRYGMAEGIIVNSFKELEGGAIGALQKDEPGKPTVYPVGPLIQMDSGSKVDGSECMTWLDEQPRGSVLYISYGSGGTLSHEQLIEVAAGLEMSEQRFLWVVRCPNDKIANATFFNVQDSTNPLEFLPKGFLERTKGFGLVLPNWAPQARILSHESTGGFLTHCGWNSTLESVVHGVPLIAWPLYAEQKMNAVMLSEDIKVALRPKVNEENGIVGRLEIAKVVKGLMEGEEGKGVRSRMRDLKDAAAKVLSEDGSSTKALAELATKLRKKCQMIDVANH

## COC(=O)c1ccccc1N [MANT, methyl anthranilate]
UGT72B19
  Km: 212 ± 19.1 µM
UGT71C1
  Km: 164 ± 22 µM
UGT72B68
  Km: 347 ± 45.7 µM
